The values below come from patent US9018258B2, “Substituted 1-benzylcycloalkylcarboxylic acids and the use thereof” (Bayer Intellectual Property GmbH, priority 2010, dated 2015).

pEC50, pIC50: −log10 of the molar value.

Experiment [1] concerns saphenous artery. Put plainly: Vasorelaxant effect in vitro (phenylephrine-contracted saphenous artery rings). Also on record: species or system Rabbits. The following applies: Oryctolagus cuniculus; rabbit saphenous artery rings, phenylephrine-induced contraction. The method, then: Rabbits are anaesthetized and sacrificed by intravenous injection of thiopental sodium (about 50 mg/kg) and exsanguinated. The saphenous artery is removed and divided into rings 3 mm wide. the rings are mounted singly on in each case a pair of triangular hooks open at the end and made of 0.3 mm-thick special wire (Remanium®). Each ring is placed under an initial tension in 5 ml organ baths with Krebs-Henseleit solution which is at 37° C., is gassed with carbogen and has the following composition: NaCl 119 mM; KCl 4.8 mM; CaCl2×2 H2O 1 mM; MgSO4×7 H2O 1.4 mM; KH2PO4 1.2 mM; NaHCO3 25 mM; glucose 10 mM; bovine serum albumin 0.001%. The force of contraction is detected with Statham UC2 cells, amplified and digitized via A/D converters (DAS-1802 HC, Keithley Instruments, Munich) and recorded in parallel on chart recorders. Contractions are induced by addition of phenylephrine.
After several (generally 4) control cycles, the substance to be investigated is added in each further run in increasing dosage, and the level of the contraction achieved under the influence of the test substance is compared with the level of the contraction reached in the last preceding run. The concentration necessary to reduce the contraction reached in the preceding control by 50% is calculated from this (IC50). The standard application volume is 5 μl. The proportion of DMSO in the bath solution corresponds to 0.1%.

Experiment [2] addresses T1, soluble guanylate cyclase (sGC) (Rattus norvegicus, UniProt P20595).
T1 construct: made in house; host or cells: Sf9 insect cells (baculovirus)
Briefly: Stimulation of sGC enzyme activity (PPi detection, luciferase). The conditions noted are these: sGC enzyme in vitro; for pEC50: read-out: EC50 (concentration at 50% of maximum efficacy), activating action at the sGC enzyme. Type of experiment: biochemical. On the procedure:
Soluble guanylate cyclase (sGC) converts on stimulation GTP into cGMP and pyrophosphate (PPi). PPi is detected with the aid of the assay described below. The signal produced in the assay increases as the reaction progresses and serves as a measure of the sGC enzyme activity under the given stimulation.
To carry out the assay, 29 μl of enzyme solution [0-10 nM soluble guanylate cyclase (prepared according to Honicka et al., J. Mol. Med. 77, 14-23 (1999)) in 50 mM TEA, 2 mM MgCl2, 0.1% BSA (fraction V), 0.005% Brij®, pH 7.5] are initially introduced into a microplate, and 1 μl of the substance to be tested (as a serially diluted solution in DMSO) is added. The mixture is incubated at room temperature for 10 min. Then 20 μl of detection mix [1.2 nM Firefly Luciferase (Photinus pyralis luciferase, Promega), 29 μM dehydroluciferin (prepared according to Bitler & McElroy, Arch. Biochem. Biophys. 72, 358 (1957)), 122 μM luciferin (Promega), 153 μM ATP (Sigma) and 0.4 mM DTT (Sigma) in 50 mM TEA, 2 mM MgCl2, 0.1% BSA (fraction V), 0.005% Brij®, pH 7.5] are added. The enzyme reaction is started by adding 20 μl of substrate solution [1.25 mM guanosine 5′-triphosphate (Sigma) in 50 mM TEA, 2 mM MgCl2, 0.1% BSA (fraction V), 0.005% Brij®, pH 7.5] and measured continuously in a luminometer. The extent of the stimulation by the substance to be tested can be determined relative to the signal of the unstimulated reaction.
The activation of haem-free guanylate cyclase is examined by addition of 25 μM of 1H-1,2,4-oxadiazolo[4,3-a]quinoxalin-1-one (ODQ) to the enzyme solution and subsequent incubation for 30 minutes and compared to the stimulation of the native enzyme.

Experiment [3] addresses T2, sGC (Rattus norvegicus, UniProt P20595).
T2 construct: expressed in transfected cells; host or cells: CHO reporter cell
Put plainly: Action at a recombinant guanylate cyclase reporter cell line (CHO reporter cell). Type of experiment: cell-based. The conditions noted are these: CHO reporter cell in vitro. On the procedure:
The cellular action of the compounds according to the invention is determined at a recombinant guanylate cyclase reporter cell line, as described in F. Wunder et al., Anal. Biochem. 339, 104-112 (2005).

Experiment [4] concerns the target T3, GAL4-PPARδ (Homo sapiens, UniProt Q03181).
T3 construct: PPARδ (amino acids 138-442); expressed in transfected cells
T3 sequence (Q03181 138-441 limits assumed): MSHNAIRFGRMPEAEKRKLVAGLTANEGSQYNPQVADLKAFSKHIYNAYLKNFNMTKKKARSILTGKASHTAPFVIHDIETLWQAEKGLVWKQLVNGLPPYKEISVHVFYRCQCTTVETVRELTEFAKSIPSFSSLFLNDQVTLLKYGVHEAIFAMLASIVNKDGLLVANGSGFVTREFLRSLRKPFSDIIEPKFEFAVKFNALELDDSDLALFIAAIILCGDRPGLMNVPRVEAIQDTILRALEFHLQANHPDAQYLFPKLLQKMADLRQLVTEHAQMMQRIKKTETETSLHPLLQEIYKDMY
Briefly: Cellular PPAR transactivation assay, GAL4-PPARδ chimera in CHO-K1 cells. Type of experiment: cell-based. The conditions noted are these: for Emax: CHO-K1, maximum effect relative to reference compound (Example 73 of EP 1 452 521-A1 = 100%), read-out: PPARδ efficacy; for pEC50: CHO-K1 cells, luciferase reporter, 6 h stimulation. An outline of the steps:
(§1)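 CHO-K1 cells stably expressing GAL4 DNA-binding domain fused to the human PPAR ligand-binding domain (α aa 167-468, γ aa 203-506, δ aa 138-442) plus a GAL4-driven firefly luciferase reporter. Compounds added in serum-free medium for 6 h; EC50 from luminescence curves. Efficacy in % of a pan-PPAR agonist reference set as 100%.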

Experiment [5] deals with T4, GAL4-PPARγ (Homo sapiens, UniProt P37231).
T4 construct: PPARγ (amino acids 203-506); expressed in transfected cells
T4 sequence (P37231 203-505 limits assumed): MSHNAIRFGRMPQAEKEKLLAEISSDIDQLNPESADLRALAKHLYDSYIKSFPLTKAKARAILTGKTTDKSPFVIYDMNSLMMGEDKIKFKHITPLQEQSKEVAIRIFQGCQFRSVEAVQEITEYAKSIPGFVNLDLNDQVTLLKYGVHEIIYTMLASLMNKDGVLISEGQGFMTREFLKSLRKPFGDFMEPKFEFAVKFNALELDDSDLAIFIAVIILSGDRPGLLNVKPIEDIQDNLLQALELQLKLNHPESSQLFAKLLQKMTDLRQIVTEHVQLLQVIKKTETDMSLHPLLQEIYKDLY
Briefly: Cellular PPAR transactivation assay, GAL4-PPARγ chimera in CHO-K1 cells. Type of experiment: cell-based. The conditions noted are these: for Emax: CHO-K1, maximum effect relative to reference compound (Example 73 of EP 1 452 521-A1 = 100%), read-out: PPARγ efficacy; for pEC50: CHO-K1 cells, luciferase reporter, 6 h stimulation. An outline of the steps: as §1
A general note: Reporter assays use an easily measured gene product as a stand-in for the process of interest.

Experiment [6] has as its target T5, GAL4-PPARα (Homo sapiens, UniProt Q07869).
T5 construct: expressed in transfected cells
T5 sequence (Q07869 167-468): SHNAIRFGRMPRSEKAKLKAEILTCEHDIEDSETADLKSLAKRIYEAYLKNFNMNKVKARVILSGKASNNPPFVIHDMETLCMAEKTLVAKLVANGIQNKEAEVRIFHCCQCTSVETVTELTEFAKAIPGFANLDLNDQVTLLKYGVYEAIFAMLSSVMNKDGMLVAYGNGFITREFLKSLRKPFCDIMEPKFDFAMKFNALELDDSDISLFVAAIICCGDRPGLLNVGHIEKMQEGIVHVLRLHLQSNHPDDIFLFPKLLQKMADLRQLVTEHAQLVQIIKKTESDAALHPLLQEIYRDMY
Put plainly: Cellular PPAR transactivation assay, GAL4-PPARα chimera in CHO-K1 cells. Type of experiment: cell-based. The conditions noted are these: for Emax: CHO-K1, maximum effect relative to reference compound (Example 73 of EP 1 452 521-A1 = 100%), read-out: PPARα efficacy; for pEC50: CHO-K1 cells, luciferase reporter, 6 h stimulation. An outline of the steps: as §1

T2 sequence (P19686 whole entry partner): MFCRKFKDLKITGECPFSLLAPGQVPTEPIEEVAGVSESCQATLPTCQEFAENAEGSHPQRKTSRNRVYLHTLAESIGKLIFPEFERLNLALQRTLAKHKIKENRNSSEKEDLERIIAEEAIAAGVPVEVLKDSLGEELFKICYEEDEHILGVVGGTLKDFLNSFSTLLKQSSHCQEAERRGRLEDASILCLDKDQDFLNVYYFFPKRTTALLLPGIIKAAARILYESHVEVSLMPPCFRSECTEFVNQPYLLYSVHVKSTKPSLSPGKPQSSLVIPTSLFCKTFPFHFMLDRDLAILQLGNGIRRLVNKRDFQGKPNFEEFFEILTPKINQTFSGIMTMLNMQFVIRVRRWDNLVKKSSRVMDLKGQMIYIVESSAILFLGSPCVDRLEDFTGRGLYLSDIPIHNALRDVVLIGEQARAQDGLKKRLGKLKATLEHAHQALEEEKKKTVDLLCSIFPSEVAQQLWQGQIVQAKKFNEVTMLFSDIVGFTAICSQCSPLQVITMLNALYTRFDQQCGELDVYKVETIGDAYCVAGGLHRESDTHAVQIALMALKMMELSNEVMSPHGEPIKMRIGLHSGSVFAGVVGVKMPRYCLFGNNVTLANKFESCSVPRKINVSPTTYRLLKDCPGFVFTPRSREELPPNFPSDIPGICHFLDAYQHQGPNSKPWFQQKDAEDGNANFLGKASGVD
T2 sequence (P20595 whole entry): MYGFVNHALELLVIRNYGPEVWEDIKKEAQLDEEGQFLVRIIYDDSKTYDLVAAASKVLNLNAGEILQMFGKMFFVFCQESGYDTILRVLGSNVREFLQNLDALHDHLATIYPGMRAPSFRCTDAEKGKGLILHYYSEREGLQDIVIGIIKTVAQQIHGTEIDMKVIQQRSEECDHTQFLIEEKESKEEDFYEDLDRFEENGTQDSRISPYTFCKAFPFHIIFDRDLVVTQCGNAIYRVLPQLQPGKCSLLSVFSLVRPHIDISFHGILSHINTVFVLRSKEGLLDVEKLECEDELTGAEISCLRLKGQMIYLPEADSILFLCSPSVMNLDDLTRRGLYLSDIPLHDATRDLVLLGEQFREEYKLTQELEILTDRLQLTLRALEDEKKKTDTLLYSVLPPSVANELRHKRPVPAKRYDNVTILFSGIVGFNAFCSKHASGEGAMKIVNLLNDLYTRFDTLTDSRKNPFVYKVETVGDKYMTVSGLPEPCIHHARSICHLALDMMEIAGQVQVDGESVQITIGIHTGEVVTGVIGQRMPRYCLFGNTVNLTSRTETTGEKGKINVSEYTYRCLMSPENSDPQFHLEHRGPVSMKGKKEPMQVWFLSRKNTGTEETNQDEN
T1 sequence (P19686 whole entry partner): as the sequence (P19686 whole entry partner) above
T1 sequence (P20595 whole entry): as the sequence (P20595 whole entry) above

The term pIC50 denotes the IC50 on a negative log10 scale, so that one unit is a factor of ten. Higher therefore signals a low IC50. In the case of `CCOC(c1ccc(Cl)c(NC(=O)[C@H](c2ccc(Cl)cc2)[C@@H](C)C(F)(F)F)c1)C1(C(=O)O)CCC1` (single isomer, unassigned) [Example 109], the pIC50 in experiment [1] is 6.47. In addition, in experiment [2], the “MEC (minimum effective concentration), activating action at the sGC enzyme” value (shortened to “MEC … at the sGC enzyme”) amounted to 0.7 nM and the pEC50 is 7.70. Moreover, the “MEC (minimum effective concentration), sGC-activating activity in the CHO reporter cell” value (shortened to “MEC … in the CHO reporter cell”) in experiment [3] amounted to 0.3 nM.
`COC(c1ccc(Cl)c(NC(=O)[C@H](c2ccc(Cl)cc2)[C@@H](C)C(F)(F)F)c1)C1(C(=O)O)CC1` (single isomer, unassigned; (+)) [Example 89]: the Emax in experiment [4], in experiment [5] and in experiment [6] was 0% throughout. In addition, the pEC50 was under 5.00 in experiment [4], 7.15 in experiment [2], under 5.00 in experiment [5] and under 5.00 in experiment [6]. Besides, the “MEC … at the sGC enzyme” value in experiment [2] is reported as 3.9 nM. Also, the “MEC … in the CHO reporter cell” value in experiment [3] came out at 3 nM.
In the case of `C[C@H]([C@H](C(=O)Nc1cc(CC2(C(=O)O)CC2)ccc1Cl)c1ccc(Cl)cc1F)C(F)(F)F` [Example 32, (+)-1-(4-chloro-3-{[(2S,3R)-2-(4-chloro-2-fluoro-phenyl)-4,4,4-trifluoro-3-methylbutanoyl]-amino}benzyl)cyclopropanecarboxylic acid], the Emax in experiment [4] came to 0%; in experiment [5], 30%; in experiment [6] it was 0%. Also, the pEC50 in experiment [4] is under 5.00; in experiment [2], 8.14; in experiment [5], 5.72; in experiment [6] it was under 5.00. For the same compound, the “MEC … at the sGC enzyme” value in experiment [2] stood at 0.9 nM. The “MEC … in the CHO reporter cell” value in experiment [3] was 2.3 nM.
For the compound `COc1cc([C@@H](C(=O)Nc2cc(CC3(C(=O)O)CC3)ccc2Cl)[C@@H](C)C(F)(F)F)ccc1Cl` [Example 43, 1-(4-chloro-3-{[(2S,3R)-2-(4-chloro-3-methoxy-phenyl)-4,4,4-trifluoro-3-methylbutanoyl]amino}-benzyl)cyclopropanecarboxylic acid], the Emax in experiment [4] is 0%; in experiment [5] it was 10%; in experiment [6] it was 0%. Also, the pEC50 in experiment [4] is under 5.00; in experiment [2] it was 7.62; in experiment [5], 5.74; in experiment [6] it was under 5.00. Further, in experiment [2], the “MEC … at the sGC enzyme” value turned out to be 3.4 nM. In addition, the “MEC … in the CHO reporter cell” value in experiment [3] worked out at 3 nM.
As to `C[C@H]([C@H](C(=O)Nc1cc(CC2(C(=O)O)CC2)ccc1F)c1ccc(Cl)cc1)C(F)(F)F` [Example 51, (+)-1-(3-{[(2S,3R)-2-(4-Chlorophenyl)-4,4,4-trifluoro-3-methylbutanoyl]amino}-4-fluorobenzyl)-cyclopropanecarboxylic acid], the Emax in experiment [4] is 0%; in experiment [5] it was 20%; in experiment [6], 0%. For the same compound, the pEC50 in experiment [4] is under 5.00; in experiment [2], 7.68; in experiment [5], 5.72; in experiment [6], under 5.00. Moreover, the “MEC … at the sGC enzyme” value in experiment [2] is 3.0 nM. The “MEC … in the CHO reporter cell” value in experiment [3] amounted to 0.3 nM.
